Reference: patent publication US9168329B2, “Beta-peptides with antifungal activity” (Wisconsin Alumni Research Foundation, priority 2006, dated 2015)
Converted amounts (≈) assume the structure as drawn. Read-outs that look alike come from different tables or passages of the source. Square brackets hold non-standard residues; d marks the D form. Ends that are not written are not given here. Peptide text beside a SMILES is read from it.

Assays:
[1] = tested on: Candida albicans (SC5314, ATCC 24433, ATCC 90028); format: cell-based; details: for MIC: SC5314
Description: Minimum inhibitory concentration assay. Minimum inhibitory concentrations (MIC) for the β-peptides were determined using the broth microdilution assay described by the Committee for Clinical and Laboratory Standards (formerly known as the National Committee for Clinical Laboratory Standards) (National Committee for Clinical Laboratory Standards Reference method for broth dilution antifungal susceptibility testing of yeasts: approved standard—second edition; NCCLS document M27-A2; NCCLS: Wayne, Pa., 2002). Three strains of Candida albicans were used: SC5314, ATCC 24433, and ATCC 90028. Cells were grown for 24 hours on Sabouraud dextrose agar at 30° C. After 24 hours of growth, the cells were suspended in 0.145 M saline, and the concentration was adjusted to between 1×10^6 cells/mL and 5×10^6 cells/mL in saline. The working suspension was obtained by diluting the suspension 1:1000 in RPMI 1640 (with L-glutamine and without sodium bicarbonate, Invitrogen) buffered with 0.145 mol/L 3-(N-morpholino) propanesulfonic acid (MOPS).
Twofold serial dilutions of stock solutions of α- or β-peptides or amphotericin B (Calbiochem, solubilized in dimethyl sulfoxide) were made in RPMI 1640, and 100 μL aliquots were put into 96-well plates (Falcon). An equal volume of the cell suspension was added to the wells for a total volume of 200 μL. Growth controls and sterility controls were included.
Plates were incubated at 35° C. for 48 h and then visually inspected for fungal growth. […] Experiments were performed in duplicate and repeated on at least two different days.

[2] = tested on: human red blood cells (hRBC); experiment: Hemolysis assay; format: cell-based
Description: Hemolysis assay. The hemolysis assay was performed using human red blood cells (hRBC) as described previously (Raguse, et al. J. Am. Chem. Soc. 2002, 124, 12774-12785; Porter, et al. J. Am. Chem. Soc. 2005, 127, 11516-11529). The hRBC were washed three times in TRIS-buffered saline (TBS; 10 mM TRIS, 150 mM NaCl, pH 7.2) and then diluted to a concentration of 1% (v/v) in TBS. The hRBC suspension (80 μL) was added to twofold dilutions of peptides in TBS (20 μL) in a 96-well plate (Falcon). Wells containing hRBC treated with 20 μL TBS provided a negative control, and wells with high concentrations of the peptide melittin (Sigma) served as a positive control. After incubating at 37° C. for 1 h, plates were centrifuged, and 50 μL of the supernatant was diluted with 50 μL of water in a fresh 96-well plate. The absorbance of the diluted supernatant was measured at 405 nm, and the percent hemolysis for each well was calculated from
[formula] where A405^peptide is the absorbance for the supernatant of hRBC treated with peptide, A405^buffer is the absorbance for the supernatant of hRBC in TBS, and A405^completlysis is the average absorbance for the supernatant of cells treated with melittin at concentrations of 50-400 μg/mL. Experiments were performed in duplicate on at least two different days. Biofilm Antifungal Susceptibility Testing

[3] = pH 7, physiological ionic strength
[4] = average over three C. albicans strains, pH 7, physiological ionic strength, Table 1 prints no unit

Row | Average MIC ([1]; SC5314, pH 7) [µg/mL] | Compound | % Hemolysis at MIC [2] [%] | antifungal activity in the planktonic NCCLS assay (in words) [1, 3] | other results
1 | 21 | NCCCC[C@@H](CC(N)=O)NC(=O)[C@H]1CCCC[C@@H]1NC(=O)[C@H]1CCCC[C@@H]1NC(=O)C[C@H](CCCCN)NC(=O)[C@H]1CCCC[C@@H]1NC(=O)[C@H]1CCCC[C@@H]1NC(=O)C[C@H](CCCCN)NC(=O)[C@H]1CCCC[C@@H]1NC(=O)[C@H]1CCCC[C@@H]1NC(=O)C[C@@H](N)Cc1ccc(O)cc1 [β-peptide 5, β^3Tyr-(ACHC-ACHC-β^3Lys)3] | 7 | – | MIC [1]: 16 µg/mL (≈ 11.7 µM)
2 | >128 | CC[C@@H](C)[C@@H](NC(=O)CN)C(=O)NCC(=O)N[C@H](CCCCN)C(=O)N[C@H](Cc1ccccc1)C(=O)N[C@H](CC(C)C)C(=O)N[C@H](Cc1c[nH]cn1)C(=O)N[C@H](C)C(=O)N[C@H](C)C(=O)N[C@H](CCCCN)C(=O)N[C@H](CCCCN)C(=O)N[C@H](Cc1ccccc1)C(=O)N[C@H](C)C(=O)N[C@H](CCCCN)C(=O)N[C@H](C)C(=O)N[C@H](Cc1ccccc1)C(=O)N[C@@H](C(=O)N[C@H](C)C(=O)N[C@H](CCC(=O)O)C(=O)N[C@@H](C(=O)N[C@H](CCSC)C(=O)N[C@H](CC(N)=O)C(=O)N[C@H](CO)C(N)=O)[C@H](C)CC)C(C)C [D-Magainin 2 derivative, reference compound] (H-G[dI]G[dK][dF][dL][dH][dA][dA][dK][dK][dF][dA][dK][dA][dF][dV][dA][dE][dI][dM][dN][dS]-NH2; N-terminus assumed) | 48 | inactive | –
3 | – | CC(C)[C@@H](CC(=O)N[C@@H](CCCCN)CC(N)=O)NC(=O)[C@H]1CCCC[C@@H]1NC(=O)C[C@H](CCCCN)NC(=O)C[C@@H](NC(=O)[C@H]1CCCC[C@@H]1NC(=O)C[C@H](CCCCN)NC(=O)C[C@@H](NC(=O)[C@H]1CCCC[C@@H]1N)C(C)C)C(C)C [β-peptide 6, (ACHC-β^3Val-β^3Lys)3] | – | – | Average MIC [1, 4]: 17 µg/mL; antifungal activity in the planktonic NCCLS assay (in words) ([1]; pH 7, physiological ionic strength, listed as 6): average MIC is indistinguishable relative to β^3Tyr-containing variant (1); antifungal activity in the planktonic NCCLS assay (in words) ([1]; pH 7, physiological ionic strength, listed as (ACHC-β^3Val-β^3Lys)3): showed activity in the planktonic assay; % Hemolysis at MIC ([2]; human red blood cells, at the average MIC): 5%
4 | – | β^3Tyr-(ACHC-β^3Val-β^3Arg)3 | – | showed activity in the planktonic assay | –
5 | 11 | CC(C)C[C@@H](CC(=O)N[C@@H](CCCCN)CC(=O)N[C@H]1CCCC[C@@H]1C(=O)N[C@H](CC(=O)N[C@@H](CCCCN)CC(=O)N[C@H]1CCCC[C@@H]1C(=O)N[C@H](CC(=O)N[C@@H](CCCCN)CC(N)=O)CC(C)C)CC(C)C)NC(=O)[C@H]1CCCC[C@@H]1NC(=O)C[C@@H](N)Cc1ccc(O)cc1 [β-peptide 2, β^3Tyr-(ACHC-β^3Leu-β^3Lys)3] | 73 | – | –
6 | – | C9-β^3Tyr-(ACHC-ACHC-β^3Lys)3 | – | – | Average MIC [1, 4]: 16 µg/mL
7 | – | NCCCC[C@H](CC(N)=O)NC(=O)C[C@@H](Cc1ccccc1)NC(=O)[C@@H]1CCCC[C@H]1NC(=O)C[C@@H](CCCCN)NC(=O)C[C@@H](Cc1ccccc1)NC(=O)[C@@H]1CCCC[C@H]1NC(=O)C[C@@H](CCCCN)NC(=O)C[C@@H](Cc1ccccc1)NC(=O)[C@@H]1CCCC[C@H]1NC(=O)C[C@H](N)Cc1ccc(O)cc1 [(R)β^3Tyr-[(R,R)ACHC—(R)β^3Phe-(R)β^3Lys]3] | – | – | MIC [1]: 8 µg/mL (≈ 5.41 µM)
8 | 8 | NCCCC[C@@H](CC(N)=O)NC(=O)C[C@H](Cc1ccccc1)NC(=O)[C@H]1CCCC[C@@H]1NC(=O)C[C@H](CCCCN)NC(=O)C[C@H](Cc1ccccc1)NC(=O)[C@H]1CCCC[C@@H]1NC(=O)C[C@H](CCCCN)NC(=O)C[C@H](Cc1ccccc1)NC(=O)[C@H]1CCCC[C@@H]1NC(=O)C[C@@H](N)Cc1ccc(O)cc1 [β-peptide 3, β^3Tyr-(ACHC-β^3Phe-β^3Lys)3] | 80 | – | –
9 | – | cecropin B (KWKVFKKIEKMGRNIRNGIVKAGPAIAVLGEAKAL; ends and bridges not checked; UniProt P01508 27-61, looked up) [amphiphilic host-defense α-peptide, reference compound] | – | neither cecropin B nor a magainin derivative displays any activity | –
10 | >128 | CC[C@H](C)[C@H](NC(=O)CN)C(=O)NCC(=O)N[C@@H](CCCCN)C(=O)N[C@@H](Cc1ccccc1)C(=O)N[C@@H](CC(C)C)C(=O)N[C@@H](Cc1c[nH]cn1)C(=O)N[C@@H](C)C(=O)N[C@@H](C)C(=O)N[C@@H](CCCCN)C(=O)N[C@@H](CCCCN)C(=O)N[C@@H](Cc1ccccc1)C(=O)N[C@@H](C)C(=O)N[C@@H](CCCCN)C(=O)N[C@@H](C)C(=O)N[C@@H](Cc1ccccc1)C(=O)N[C@H](C(=O)N[C@@H](C)C(=O)N[C@@H](CCC(=O)O)C(=O)N[C@H](C(=O)N[C@@H](CCSC)C(=O)N[C@@H](CC(N)=O)C(=O)N[C@@H](CO)C(N)=O)[C@@H](C)CC)C(C)C [L-Magainin 2 derivative, reference compound] (H-GIGKFLHAAKKFAKAFVAEIMNS-NH2; N-terminus assumed) | 48 | neither cecropin B nor a magainin derivative displays any activity | –
11 | 69 | CC(C)[C@@H](CC(=O)N[C@@H](CCCCN)CC(=O)N[C@H](CC(=O)N[C@H](CC(=O)N[C@@H](CCCCN)CC(=O)N[C@H](CC(=O)N[C@H](CC(=O)N[C@@H](CCCCN)CC(N)=O)C(C)C)C(C)C)C(C)C)C(C)C)NC(=O)C[C@@H](NC(=O)C[C@@H](N)Cc1ccc(O)cc1)C(C)C [β-peptide 4, β^3Tyr-(β^3Val-β^3Val-β^3Lys)3] | 9 | – | antifungal activity in the planktonic NCCLS assay (in words) ([1]; pH 7, physiological ionic strength, listed as 4): substantially weaker antifungal activity; antifungal activity in the planktonic NCCLS assay (in words) ([1]; pH 7, physiological ionic strength, listed as β^3Tyr-(β^3Val-β^3Val-β^3Lys)3): showed activity in the planktonic assay
12 | – | CC(C)C[C@@H](CC(=O)N[C@H]1CCCC[C@@H]1C(=O)N[C@@H](CCCCN)CC(N)=O)NC(=O)C[C@H](CCCCN)NC(=O)[C@H]1CCCC[C@@H]1NC(=O)C[C@H](CC(C)C)NC(=O)C[C@H](CCCCN)NC(=O)[C@H]1CCCC[C@@H]1NC(=O)C[C@H](CC(C)C)NC(=O)C[C@@H](N)Cc1ccc(O)cc1 [β^3Tyr-(β^3Leu-ACHC-β^3Lys)3] | – | – | MIC [1]: 16 µg/mL (≈ 11.6 µM)
13 | – | CC(C)[C@@H](CC(=O)N[C@H]1CCCC[C@@H]1C(=O)N[C@@H](CCCCN)CC(=O)N[C@H](CC(=O)N[C@H]1CCCC[C@@H]1C(=O)N[C@H]1CCCC[C@@H]1C(=O)N[C@@H](CCCCN)CC(N)=O)C(C)C)NC(=O)C[C@@H](NC(=O)C[C@@H](N)CCCCN)C(C)C [β-peptide 7, β^3Lys-β^3Val-β^3Val-ACHC-β^3Lys-β^3Val-ACHC-ACHC-β^3Lys] | – | lack of antifungal activity | –
